Numbered stars: 1 amine (or outer) side, 2 acyl side, 3 side chain; on linkers, the order of the positions; unused ones are H or OH. Square brackets hold non-standard residues; d marks the D form. Peptide text beside a SMILES is read from it. * marks the point of attachment. ξ: configuration not given here. X1 = O=C([C@@H](N[*:1])c1cnc[nH]1)[*:2]; Ile(3ξ) = CCC(C)[C@H](N)C(=O)O; Lauroyl = CCCCCCCCCCCC(=O)*
Biological target: WHN-N protein (SARS-CoV-2 nucleocapsid N protein) (Severe acute respiratory syndrome coronavirus 2, UniProt P0DTC9)
Format: binding

Row | SMILES | specificity of the peptide sequence
1 | CCCCCCCCCCCC(=O)N[C@H](C(=O)N[C@H](C(=O)N[C@@H](CO)C(=O)N[C@@H](CC(N)=O)C(=O)N[C@@H](Cc1c[nH]cn1)C(=O)N[C@@H](CO)C(=O)N[C@@H](Cc1c[nH]cn1)C(=O)N[C@@H](Cc1c[nH]cn1)C(=O)N[C@@H](Cc1c[nH]cn1)C(=O)N[C@@H](CC(=O)O)C(=O)N[C@H](C(=O)N[C@@H](CC(C)C)C(N)=O)C(C)CC)C(C)CC)c1cnc[nH]1 (stereo partly drawn) [11-KOD1, 11-Mrcpt-HISNHSHHHDIL-NH2] (Lauroyl-[X1][Ile(3ξ)]SNHSHHHD[Ile(3ξ)]L-NH2) | specific for the WHN-N protein
2 | CCCCCCCCCCCC(=O)N[C@H](C(=O)N1CCC[C@H]1C(=O)N[C@H](C(=O)N[C@@H](Cc1ccc(O)cc1)C(=O)N[C@@H](Cc1c[nH]cn1)C(=O)N[C@@H](CCCCN)C(=O)N[C@@H](CC(C)C)C(N)=O)C(C)CC)[C@@H](C)O (some centres unmarked) [11-KOD7, 11-Mrcpt-TPIYHKL-NH2] (Lauroyl-TP[Ile(3ξ)]YHKL-NH2) | specific for SARS-CoV-2 virus
